These results are taken from paper PMC7285913, “In vitro hepatic biotransformation of the algal toxin pectenotoxin-2” (Toxicon: X, 2020).

For data set [1] the following is noted: ref Alexander et al., 2009, cited from earlier work; for provisional toxicity equivalent factor (TEF): EFSA.
Data set [2] in a line: In vitro hepatocyte assay under kinetic conditions (PTX-2 disappearance). Type of data set: in vitro ADME, Wistar rats. To be noted: male, Wistar, primary rat hepatocytes in suspension, pH 7.4, primary rat hepatocytes, read-out: t½,assay (converted). On the procedure: (§1) Isolated rat liver cells were prepared by a two-step collagenase ex vivo perfusion from male Wistar rats, weighing 250–300 g and kept under routine laboratory conditions with free access to standard laboratory pelleted feed and water ([Seglen, 1976]). The hepatocytes were separated by gradient centrifugation ([Fæste and Moldes-Anaya, 2016]), suspended in PBS, and stored for up to 1 h on ice before use ([Sidelmann et al., 1996], [Gebhardt et al., 2003]). Cell viability was determined microscopically (Leica DMIL microscope; Leica Microsystems GmBH, Wetzlar, Germany), using Trypan blue staining and a Neubauer-counting chamber. About 2.5 × 10^8 living cells per liver were obtained on average, and only preparations with viabilities >92% were used in the metabolism experiments.
(§2) The hepatocyte suspension was diluted with KRB–HEPES buffer pH 7.4 (Krebs-Ringer buffer containing 145 mM NaCl, 5.4 mM KCl, 0.8 mM MgSO4, 0.33 mM Na2HPO4, 0.34 mM KH2PO4, 2 mM CaCl2, and 20 mM HEPES) to a final assay concentration of 2.5 × 10^6 cells/mL. The incubations were performed in capped round-bottom glass tubes in a total assay volume of 5 mL. After pre-incubation for 5 min at 37 °C in a shaking water bath, 5–25 μL of a PTX-2 stock solution containing 1 mg/mL PTX-2 in MeOH were added, resulting in initial concentrations of 1–5 μg/mL PTX-2 in the assay. Aliquots (300 μL) were taken after 0, 2.5, 5, 7.5, 10, 15, 30, and 60 min of incubation and directly transferred into 300 μL ice-cold acetonitrile (ACN) in Eppendorf tubes. Two control samples were included in the experiments, a blank matrix control and a PTX-2 stability control. After centrifuging all samples at 16,000 g for 1 min (5415D centrifuge; Eppendorf AG, Hamburg, Germany), the supernatants were transferred to HPLC vials for analysis by liquid chromatography mass spectrometry (LC-MS) to determine the half-life of PTX-2 in rat hepatocytes.
(§3) LC-MS analyses of centrifuged aliquots from the kinetic assays were performed under reversed phase conditions using a Symmetry C18 column (5 μm, 3.9 × 150 mm) (Waters, Milford, MA, USA) and a binary LC pump (Finnigan Mod. 250) coupled to an Autosampler Plus (Thermo Electron Corporation, San Jose, CA, USA). 5–20 μL samples were injected and eluted using a linear gradient starting with ACN/water (40:60, v/v, both containing 0.1% formic acid and 2 mM ammonium formate) and rising to 100% ACN in 20 min. Isocratic elution with 100% ACN was maintained for 5 min before the eluent was returned to the starting conditions. The flow rate was set to 1 mL/min.

The subject of data set [3] is primary rat hepatocytes. The description is as above. Format: in vitro ADME, Wistar rats. On the procedure:
as §1, §2, §3

Data set [4] concerns primary rat hepatocytes. As to the kind of experiment: Calculation of the hepatic clearance and maximum bioavailability of PTX-2 in rats from hepatocyte half-life. Particulars: for CLb: predicted in vivo hepatic blood clearance in rat, well-stirred model, fub = 1; for CLint: scaled from rat hepatocyte assay. Type of data set: in vitro ADME. On the procedure: The in vitro assay clearance (CLassay) of PTX-2 was calculated from the hepatocyte incubations run with first order kinetics (CLassay = Vassay × ln2/t1/2 [Lh^−1]) using the assay volume (Vassay) and the disappearance half-life (t1/2) of the parent compound as determined from the slope of the linear regression from a semi-logarithmic concentration vs. time plot ([Obach, 1999]). […] The in vivo hepatic blood clearance (CLb) was calculated from CLint by applying the non-restricted well-stirred model (CLb = CLint x Q/(CLint + Q) [L (h x kg)^−1]) ([Houston, 1994]), considering the hepatic blood flow in rat (Q ~ 4.2 L (h x kg)^−1) ([Lin and Lu, 1998]). Potential binding to blood components in vivo was not considered in this study and thus the fraction unbound in blood (fub) set to 1. The maximum bioavailability (Fmax) of PTX-2 in rats was estimated (Fmax = Fa x (1 – (CLb/Q) under the assumption of complete absorption from the gastrointestinal tract (Fa = 1) ([De Buck et al., 2007]) and negligible non-hepatic elimination. Fmax was ranked according to the criteria for low (0–10%), moderate (10–30%) and high bioavailability (up to 100%) ([Obach, 1996]).

Data set [5] deals with mice. To be noted: intestinal toxicity in mice; ref Alexander et al., 2009; cited from earlier work.
Data set [6] relates to mice. To be noted: single oral doses of 0.3, 1 and 5 mg/kg bw, preliminary data, ref Burgess and Shaw, 2001, Alexander et al., 2009; cited from earlier work.
Data set [7] has as its system mice. To be noted: mouse, ref Suzuki et al., 2006, cited from earlier work.
For the next data set, the system named is mussels. To be noted: in mussels, in contrast to PTX-2; ref MacKenzie et al., 2005; cited from earlier work.

Turning to `CC1=C\[C@H](C)C[C@@]2(C)CC[C@@H](O2)[C@@]23CC[C@@](CO)(C[C@@H](O2)[C@H]2O[C@](C)(CC2=O)[C@@H](O)[C@@H]2CC[C@@]4(CCC[C@H](O4)[C@@H](C)C(=O)O[C@@H]4C[C@@H]([C@@]5(O)OCC[C@@H](C)[C@H]5O)O[C@@H]4\C=C\1)O2)O3` [PTX-1, reference compound], the “provisional toxicity equivalent factor (TEF)” value in data set [1] was 1.

With `CC(/C=C/[C@H]1O[C@H]([C@@]2(O)OCC[C@@H](C)[C@H]2O)C[C@H]1O)=C\[C@H](C)C[C@@]1(C)CC[C@H]([C@@]23CC[C@@](C)(C[C@H]([C@H]4O[C@@](C)([C@@H](O)[C@@H]5CCC6(CCC[C@@H]([C@@H](C)C(=O)O)O6)O5)CC4=O)O2)O3)O1` (stereo partly drawn) [PTX-2 seco acid (SA), pectenotoxin-2 seco acid], in data set [1] (compared with PTXs given TEF of 1), the “relative toxicity” value is reported as “much less toxic”.

`CC1=CC(C)CC2(C)CCC(O2)C23CCC(C)(CC(O2)C2OC(C)(CC2=O)C(O)C2CCC4(CCCC(O4)C(C)C(=O)OC4CC(C5(O)OCCC(C)C5O)OC4C=C1)O2)O3` (stereo not drawn) [PTX-2, pectenotoxin-2]: in data set [2] (PTX-2 1.4 μg/mL), the half-life at 1.4 μg/mL is 11.4 min. In addition, the half-life at 2.6 μg/mL in data set [2] (PTX-2 2.6 μg/mL) was 9.6 min. For the same molecule, in data set [2] (PTX-2 4.8 μg/mL), the half-life at 4.8 μg/mL was 12 min. The PTX-2 remaining unchanged in the data set on primary rat hepatocytes [3] (after 30 min of incubation, all concentrations, rat hepatocytes) is recorded as 17–20%. For the same molecule, the “metabolism in freshly isolated rat hepatocytes” value with primary rat hepatocytes [3] (freshly isolated rat hepatocytes) is reported as “rapidly metabolized”. For the same molecule, the CLb is 47.3 mL/min/kg with primary rat hepatocytes [4] (PTX-2 1.4 μg/mL), 50 mL/min/kg in the data set with primary rat hepatocytes [4] (PTX-2 2.6 μg/mL) and 47 mL/min/kg with primary rat hepatocytes [4] (PTX-2 4.8 μg/mL). Further, the values for the CLint with primary rat hepatocytes [4] (PTX-2 1.4 μg/mL), in the data set with primary rat hepatocytes [4] (PTX-2 2.6 μg/mL) and with primary rat hepatocytes [4] (PTX-2 4.8 μg/mL) were 146 mL/min/kg, 174 mL/min/kg and 143 mL/min/kg, respectively. For the same molecule, the “compound predicted to remain unmetabolized after the first pass through the liver” value in the data set on primary rat hepatocytes [4] (after oral uptake, rat) is on record as “up to 32%”. Moreover, the “predicted hepatic blood clearance (rank)” value in the data set with primary rat hepatocytes [4] (rat, negligible protein binding and unrestricted absorption assumed) was “moderate”. Further, the “lowest-observed-adverse-effect-level (LOAEL)” value in the data set with mice [5] is given as 250 μg/kg bw. The “provisional toxicity equivalent factor (TEF)” value in data set [1] is 1. Further, the “acute reference dose (ARfD)” value in data set [1] (established by EFSA) is on record as 0.8 μg PTX-2 equivalents/kg body weight (bw). In addition, the metabolic elimination entry in the data set on mice [6] was “considerable metabolic elimination”. In addition, the “uptake from the gastrointestinal tract” value in the data set with mice [6] is on record as “low uptake from the gastrointestinal tract”.

As to `CC1=C\[C@H](C)C[C@@]2(C)CC[C@@H](O2)[C@@]23CC[C@@](C=O)(C[C@@H](O2)[C@H]2O[C@](C)(CC2=O)[C@@H](O)[C@@H]2CC[C@@]4(CCC[C@H](O4)[C@@H](C)C(=O)O[C@@H]4C[C@@H]([C@@]5(O)OCC[C@@H](C)[C@H]5O)O[C@@H]4\C=C\1)O2)O3` [PTX-3], the “provisional toxicity equivalent factor (TEF)” value in data set [1] is on record as 1.

As to `CC1=C\[C@H](C)C[C@@]2(C)CC[C@@H](O2)[C@@]23CC[C@@](CO)(C[C@@H](O2)[C@H]2O[C@](C)(CC2=O)[C@@H](O)[C@@H]2CC[C@]4(CCC[C@H](O4)[C@@H](C)C(=O)O[C@@H]4C[C@@H]([C@@]5(O)OCC[C@@H](C)[C@H]5O)O[C@@H]4\C=C\1)O2)O3` [PTX-4], in data set [1], the “provisional toxicity equivalent factor (TEF)” value is on record as 1.

In the case of `CC1=C\[C@H](C)C[C@@]2(C)CC[C@@H](O2)[C@@]23CC[C@@](C(=O)O)(C[C@@H](O2)[C@H]2O[C@](C)(CC2=O)[C@@H](O)[C@@H]2CC[C@@]4(CCC[C@H](O4)[C@@H](C)C(=O)O[C@@H]4C[C@@H]([C@@]5(O)OCC[C@@H](C)[C@H]5O)O[C@@H]4\C=C\1)O2)O3` [PTX-6], the “provisional toxicity equivalent factor (TEF)” value in data set [1] was 1.

Take `CC1=C\[C@H](C)C[C@@]2(C)CC[C@@H](O2)[C@@]23CC[C@@](C)(C[C@@H](O2)[C@H]2O[C@](C)(CC2=O)[C@@H](O)[C@@H]2CC[C@@]4(CCC[C@H](O4)[C@@H](C)C(=O)O[C@@H]4[C@H](O)[C@@H]([C@@]5(O)OCC[C@@H](C)[C@H]5O)O[C@@H]4\C=C\1)O2)O3` [PTX-11, 34 S-hydroxypectenotoxin-2]: the “provisional toxicity equivalent factor (TEF)” value in data set [1] is recorded as 1. In the data set on mice [7] (as much as 5 mg/kg bw p. o.), the “effects after oral application” value was “no effects were detected”. Besides, in the data set with mice [7] (i. p.), the LD50 is 0.24 mg/kg bw. In addition, the “resistance to enzymatic hydrolysis” value in the data set with mussels is on record as “relatively resistant to enzymatic hydrolysis”.
